Data taken from patent US12226403B2 (SPERO THERAPEUTICS, INC., priority 2016, dated 2025).

Key:
[1] = PK parameters for oral administration to monkeys; assay type: in vivo; conditions: cynomolgus monkey, plasma, 100 mg; oral tablets vs previously generated IV data, estimated; read-out: bioavailability of tebipenem
Description: Each animal received a one week wash out prior to the next dose and each served as its own control. Blood samples were collected into K2EDTA tubes before processing to plasma. Samples were obtained at 15 minutes, 30 minutes, 1 hours, 2 hours, 4 hours, 6 hours, 8 hours, 10 hours, 12 hours, 16 hours, and 24 hours post administration. […] Non-compartmental analysis used to derive pharmacokinetic parameters of the composite time vs. concentration profiles were performed for each dose level using Phoenix Winnonlin v. 6.4. Plasma concentration of tebipenem for each time point was determined by HPLC.

[2] = Previously generated IV data; conditions: in vivo, 10 mg/kg dose
Excerpt: Cmax was reduced with the modified release formulation compared to the immediate release (free base and HBr) formulation but AUCall was relatively constant between the formulations. AUCinf could not be calculated due to the variability in the terminal elimination profile. […] Mean residence time was increased in the extended release formulation.

SMILES: C[C@@H](O)[C@H]1C(=O)N2C(C(=O)O)=C(SC3CN(C4=NCCS4)C3)[C@H](C)[C@H]12 [tebipenem]
- bioavailability [1]: 39 to 50%
- AUC [2]: 13100 ng·h/mL
